Values of other authors as cited in patent US20250353815A1, “AMINO ACID HAVING FLUORINE AT a-POSITION, AND DERIVATIVE OF SAME” (SynCrest Inc., priority 2022, published 2025).

Columns and labels:
DNA methyltransferase [1] = settings: inhibition of DNA methyltransferase
DNA methyltransferase [2] = test system: DNA methyltransferase

## O=C(O)[C@H](Cc1c[nH]c2ccccc12)N1C(=O)c2ccccc2C1=O [RG-108, N-phthalyl-L-tryptophan]
DNA methyltransferase [1]
  IC50: 0.115 µM
DNA methyltransferase [2]
  binding to the active site of the enzyme in molecular modeling: bind directly to the active site of the enzyme
Human somatic cells
  reprogramming of somatic cells into iPS cells: promotes the reprogramming
Mouse somatic cells
  reprogramming of somatic cells into iPS cells: promotes the reprogramming
